Assay [1] has as its system zymostenol accumulation in EpiSC-derived OPCs (EBP). The assay is described as follows: GC/MS-based sterol profiling (zymostenol accumulation). It counts as cell-based. As to conditions: Mus musculus, 24 hours, 8 doses from 0.15 nM to 333 nM, read-out: Zymostenol GCMS EC50. Put shortly: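 Zymostenol level is expressed relative to that after 24 h with 100 nM positive-control reference, measured by full-scan GC/MS (m/z 458) with cholesterol-d7 internal standard after BSTFA derivatisation. Cells were EpiSC-derived OPCs, 100,000/well in N2B27 without growth factors, treated 24 h, from two or more independent platings.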

A further assay concerns the target T1, human EBP (Homo sapiens, UniProt Q15125).
T1 construct: expressed in transfected cells; host or cells: human embryonic kidney 293 cells
The assay is described as follows: hEBP SPA competition binding assay ([3H]-Ifenprodil). Here is the method:
Membrane preparation: To examine compound binding affinity to EBP, human EBP was overexpressed in human embryonic kidney 293 cells. Cell pellet was lysed in 10 times weight binding buffer (50 mM Tris, 5 mM MgCl2, 0.1 mM EDTA, lx protease inhibitor cocktail, pH 7.5) on ice by using a dounce homogenizer. The solution was centrifuged at 25,000 g for 50 min at 4° C. The membrane pellet was re-suspended in binding buffer and run through a 25⅝ gauge needle. After checking the concentration by Bradford assay, the whole cell membrane solution was adjusted to 20 mg/mL and stored at −80° C.
This binding solution was centrifuged at 400 g for 5 minutes to collect the bead/membrane mixture. After re-suspending the pellet in binding buffer at the same calculated volume with 0.01% BSA (Sigma A1933), the bead/membrane mixture was added in 384-well low-binding surface plate (PerkinElmer Cat #6057480) at 25 µl/well. Radioligand at different concentrations with and without the non-radio-labeled same ligand 5 uM (for nonspecific and total signal, respectively) was added to bring final volume to 50 µl/well with DMSO concentration at 0.1%. At equilibrium (3 hours after ligand addition), radiometric signal CPM was counted by using a Microbeta2 microplate counter (Perkinelmer).
A pre-incubated bead/membrane mixture was added in compound plate at 0.3 mg beads and […] membrane per well. […] At equilibrium (3 hours after ligand addition), radiometric signal was counted as described above. The percentage inhibition of compound at each testing concentration was calculated by normalizing each condition's CPM readout to full block (5 uM non-radiolabeled ligand) and non-block (DMSO) control conditions. Compound binding inhibition IC50 was determined by nonlinear regression fitting of percentage inhibition plot against compound concentration. Compound Ki was calculated from the equation Ki=IC50/(1+[L]/Kd), which [L] was radioligand concentration used in assay. All tests had N bigger or equal to 2.

T1 sequence (Q15125 whole entry): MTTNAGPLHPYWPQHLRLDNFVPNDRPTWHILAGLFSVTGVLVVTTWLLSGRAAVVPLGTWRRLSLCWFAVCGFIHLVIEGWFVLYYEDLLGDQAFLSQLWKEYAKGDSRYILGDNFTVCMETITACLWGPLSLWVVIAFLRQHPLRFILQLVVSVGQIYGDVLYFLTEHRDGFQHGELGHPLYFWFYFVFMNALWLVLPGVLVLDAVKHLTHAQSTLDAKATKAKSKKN

With `CC(C)n1nc(C2(C(F)(F)F)CC2)cc1[C@H]1[C@@H]2C[C@H](N3CCC4(C3)CS(=O)(=O)C4)C[C@@H]21` [Compound 32, 6-((1R,3r,5S,6r)-6-(1-Isopropyl-3-(1-(trifluoromethyl)cyclopropyl)-1H-pyrazol-5-yl)bicyclo[3.1.0]hexan-3-yl)-2-thia-6-azaspiro[3.4]octane 2,2-dioxide], in assay [1], the EC50 was found to be 5.3 nM. The same compound registered an inhibition constant Ki on human EBP of 23 nM.

These data come from patent US20240391930A1, “SPIROCYCLIC BICYCLIC MODULATORS OF CHOLESTEROL BIOSYNTHESIS AND THEIR USE FOR PROMOTING REMYELINATION” (GENENTECH, INC., priority 2021, published 2024).
